Source: patent US9248203B2, “Fluorescent imaging with substituted cyanine dyes” (LI-COR, INC., priority 2010, dated 2016)

Tests used:
[1] = In vivo clearance, Pearl Impulse imaging; parameters: species or system nude mice; settings: for Total: 800 channel; for clearance in vivo (clearance series): FIG. 9, 1 nmole injected, imaged over 24 h
Description: Two nude mice were injected with 1 nmole of either compound 16 or IRDye 800CW carboxylate. They were then imaged longitudinally over the next 24 h with the Pearl Impulse imaging system. The results are presented in FIG. 9: in vivo clearance in nudes (FIG. 9A), whole body dorsal views (FIG. 9B), and the rate of clearance (FIG. 9C). The clearance data is presented below in Table 4.

U87GM cells = assay: Immunocytochemical binding, blocking and dye control assay, U87GM; assay type: cell-based; settings: dye control up to 5 μM, FIG. 7C
Description: RGD (Arg-Gly-Asp), the recognition motif used to bind the integrin receptors, was labeled with compound 17. The characteristics of RGD/17 conjugate and the analogous dye carboxylate 16 were evaluated in a cell-based assay.
Compound 17 was conjugated to the peptide RGD by the general procedure set forth in Example 32.
The cell lines U87GM and PC3MLN4 were assayed. Assays included binding, blocking, and carboxylate control. Serial dilutions of compound 16 were prepared at concentrations of 200-6.25 nM. Blocking was accomplished with unlabeled RGD at concentrations of 10-0.31 μM with the addition of 200 nM compound 17-RGD conjugates in all test wells. The compound 16 was evaluated as a dye control for non-specific binding at relatively high levels from 5-0.16 μM with U87GM cells and 1-0.002 μM with PC3 cells.
In the second round of testing with U87GM cells, concentrations of unlabeled RGD and compound 17/RGD were increased (FIGS. 8A and 8B). Binding assay concentrations utilized 0.8-400 nM while the blocking assay used 0.06-30 μM unlabeled RGD with an addition of 200 nM 17/RGD.

[2] = Absorption wavelength of the cyanine dyes in methanol (halo substitution effect); assay type: physicochemical; settings: Table 2
Description: Design Principle: We analyzed the properties of a dye scaffold and related compounds and the corresponding substitution effects on the excitation and emission wavelengths. The small size of fluorine is unlikely to produce steric effects, therefore, we explored the electronic effects of fluorine and related substitutions. The Hammett equation (σ-value) is an important tool to understand the electronic effects of the substituents, therefore, we explored the correlation of the wavelength (λMeOH) and the σ-value (vide infra): […]

[3] = Summary of photophysical properties (absorption, emission, relative fluorescence, quantum yield); assay type: physicochemical; settings: head is a formula, relative to IRDye 800 CW
[4] = value used for the standard IRDye 800 CW; cited from earlier work

`CC1(C)C(/C=C/C2=C(c3c(F)cc(F)cc3F)C(=C/C=C3/N(CCCS(=O)(=O)[O-])c4ccc(S(=O)(=O)[O-])cc4C3(C)C)/CC(C(=O)O)C2)=[N+](CCCS(=O)(=O)[O-])c2ccc(S(=O)(=O)[O-])cc21.[Na+].[Na+].[Na+]` (stereo not drawn) [Compound 16] gave a Total ([1]; 1 min) of 109682.80, a Total ([1]; 17 min) of 282046.59 and a Total ([1]; 45 min) of 286573.94. For the same compound, the Total ([1]; 71 min) was 266647.59, the Total ([1]; 190 min) was 139736.97 and the Total ([1]; 276 min) was 76493.30. For the same compound, the Total ([1]; 1435 min) was 1652.69, the “clearance in vivo (clearance series)” value [1] was “good clearance in vivo” and the “concentration above which relatively high non-specific binding of the dye alone was noted” value (U87GM cells) was “above 2 μM”.
Compound `CCCCOc1c(F)c(F)c(C2=C(/C=C/C3=[N+](CCCCS(=O)(=O)[O-])c4ccc(S(=O)(=O)[O-])cc4C3(C)C)CCC/C2=C\C=C2\N(CCCCS(=O)(=O)[O-])c3ccc(S(=O)(=O)[O-])cc3C2(C)C)c(F)c1F.[Na+].[Na+].[Na+]` [Compound 24] has a λMeOH [2] of 790 nm.
With `CC1(C)C(/C=C/C2=C(c3cccc(F)c3F)C(=C/C=C3/N(CCCCS(=O)(=O)[O-])c4ccc(S(=O)(=O)[O-])cc4C3(C)C)/CCC2)=[N+](CCCCS(=O)(=O)[O-])c2ccc(S(=O)(=O)[O-])cc21.[Na+].[Na+].[Na+]` [Compound 62k] the “[formula] Odyssey” value [3] was 104% and the “[formula] Fluorimeter” value [3] was 100%.
Work on `CC1(C)C(/C=C/C2=C(c3cccc(F)c3F)C(=C/C=C3/N(CCCCS(=O)(=O)[O-])c4ccc(S(=O)(=O)[O-])cc4C3(C)C)/CC(C(=O)O)C2)=[N+](CCCCS(=O)(=O)[O-])c2ccc(S(=O)(=O)[O-])cc21.[Na+].[Na+].[Na+]` (stereo not drawn) [Compound 63a] yielded a λMeOH [2] of 770 nm.
In the case of `CC1(C)C(=CC=C2CCCC(C=CC3=[N+](CCCCCC(=O)[O-])c4ccc(S(=O)(=O)[O-])cc4C3(C)C)=C2Oc2ccc(S(=O)(=O)[O-])cc2)N(CCCCS(=O)(=O)[O-])c2ccc(S(=O)(=O)[O-])cc21.[Na+].[Na+].[Na+].[Na+]` [IRDye 800CW, reference compound], the “[formula] Odyssey” value [3] is listed as 100%, the “[formula] Fluorimeter” value [3] is listed as 100% and the “Quantum Yield of the standard” value [4] is listed as 0.07.
“IRDye 800CW carboxylate [reference compound]” gave a Total ([1]; 3 min) of 114295.49, a Total ([1]; 19 min) of 306555.97 and a Total ([1]; 47 min) of 291381.69. For the same compound, the Total ([1]; 74 min) was 272408.13, the Total ([1]; 192 min) was 154950.09 and the Total ([1]; 278 min) was 102698.54. For the same compound, the Total ([1]; 1439 min) was 2336.87 and the “clearance in vivo (clearance series)” value [1] was “good clearance in vivo”.
